Patent publication US20260274832A1, “COMPOUNDS AND THEIR USE IN TREATING CANCER” (ASTRAZENECA AB, priority 2023, published 2026)

Tests used:
[1] = target: T1, AR (AR-full length) in LNCaP cells (Homo sapiens, UniProt P10275, T878A); assay: LNCaP Androgen Receptor Imaging Assay (immunofluorescence of endogenous nuclear AR); type: cell-based; conditions: 24 h incubation; for DC50: concentration giving 50% of maximum degradation of AR per curve fit, single experiment or average of two or more; for Dmax: LNCaP
T1 construct: the prostate cancer cell line LNCaP (expressing AR-full length); endogenous in cells; host or cells: LNCaP
Outline: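 Endogenous nuclear AR level was imaged by immunofluorescence after 24 h compound exposure (12-point dose response, 0.3% DMSO, 37° C./5% CO2) in LNCaP cells. Data were expressed as % of a 3 μM prior-art AR PROTAC control and fitted (bell fit where a hook appeared) to give DC50 and maximum degradation Dmax.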

[2] = target: T2, AR (L702H) in LNCaP cells (Homo sapiens, UniProt P10275, L702H/T878A); assay: LNCaP Androgen Receptor L702H Imaging Assay (LNCaP cells engineered by CRISPR/Cas9); type: cell-based; conditions: LNCaP cells with AR L702H mutation, 24 h incubation; for DC50: concentration giving 50% of maximum degradation of AR (L702H) per curve fit; for Dmax: LNCaP; for Dmax / LNCaP AR (L702H) Degradation Dmax: maximum degradation observed, normalized as % of positive control
T2 construct: engineered to introduce the mutation L702H into the AR gene using CRISPR/Cas9; endogenous in cells; host or cells: LNCaP cells edited by CRISPR/Cas9 at the AR gene
Outline: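 AR (L702H) degradation, expressed as DC50 and Dmax from curve fits normalized to a positive degrader control, was measured by high-content imaging of anti-AR immunofluorescence. The engineered LNCaP line was dosed over 12 concentrations for 24 h, 0.3% DMSO final, before PFA fixation.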

[3] = maximum degradation observed, normalized as % of positive control (prior art AR PROTAC at 3 μM)

T2 sequence (P10275 whole entry L702H/T878A): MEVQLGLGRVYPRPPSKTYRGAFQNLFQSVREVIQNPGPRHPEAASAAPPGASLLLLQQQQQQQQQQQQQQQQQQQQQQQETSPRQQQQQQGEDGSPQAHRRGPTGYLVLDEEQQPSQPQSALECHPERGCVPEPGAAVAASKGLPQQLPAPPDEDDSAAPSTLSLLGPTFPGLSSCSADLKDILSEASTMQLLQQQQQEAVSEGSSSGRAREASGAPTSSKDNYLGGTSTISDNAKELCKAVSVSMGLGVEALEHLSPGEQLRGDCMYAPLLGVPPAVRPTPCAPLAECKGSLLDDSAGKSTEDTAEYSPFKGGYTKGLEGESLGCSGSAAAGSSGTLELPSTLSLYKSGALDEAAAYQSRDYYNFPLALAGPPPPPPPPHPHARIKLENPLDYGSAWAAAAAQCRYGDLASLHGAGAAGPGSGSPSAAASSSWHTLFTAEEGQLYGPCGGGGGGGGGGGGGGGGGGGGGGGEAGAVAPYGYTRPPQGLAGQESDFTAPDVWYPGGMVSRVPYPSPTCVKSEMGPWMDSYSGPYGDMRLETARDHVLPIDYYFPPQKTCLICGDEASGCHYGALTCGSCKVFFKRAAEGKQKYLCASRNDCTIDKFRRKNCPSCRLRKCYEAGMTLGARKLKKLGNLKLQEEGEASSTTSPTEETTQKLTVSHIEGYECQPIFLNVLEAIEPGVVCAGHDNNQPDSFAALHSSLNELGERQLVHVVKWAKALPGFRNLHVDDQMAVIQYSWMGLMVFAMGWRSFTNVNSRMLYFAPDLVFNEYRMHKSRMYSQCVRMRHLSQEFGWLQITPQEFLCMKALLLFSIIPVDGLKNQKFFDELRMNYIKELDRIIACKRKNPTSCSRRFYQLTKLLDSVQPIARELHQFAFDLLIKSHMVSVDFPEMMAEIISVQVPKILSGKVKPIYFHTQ
T2 sequence (Q96SW2 whole entry partner): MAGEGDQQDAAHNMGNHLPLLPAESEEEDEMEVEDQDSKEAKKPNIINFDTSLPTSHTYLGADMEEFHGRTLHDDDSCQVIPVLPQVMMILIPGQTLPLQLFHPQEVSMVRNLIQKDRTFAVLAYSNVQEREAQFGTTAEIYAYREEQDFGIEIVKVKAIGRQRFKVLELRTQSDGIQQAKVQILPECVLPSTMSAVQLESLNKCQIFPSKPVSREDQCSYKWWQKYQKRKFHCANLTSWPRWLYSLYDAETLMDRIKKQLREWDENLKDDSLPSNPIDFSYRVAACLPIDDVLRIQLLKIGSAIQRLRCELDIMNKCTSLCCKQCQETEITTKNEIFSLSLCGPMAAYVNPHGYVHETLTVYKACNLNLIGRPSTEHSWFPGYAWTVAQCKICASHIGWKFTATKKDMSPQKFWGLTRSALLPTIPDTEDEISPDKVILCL
T1 sequence (P10275 whole entry T878A): as the sequence (P10275 whole entry L702H/T878A) above, with H702L counted along it
T1 sequence (Q96SW2 whole entry partner): as the sequence (Q96SW2 whole entry partner) above

| DC50 [1] [nM] | Dmax [1, 3] [%] | DC50 [2] [nM] | Dmax [2] [%] | Compound | LNCaP AR (L702H) Degradation Dmax [2] [%] | LNCaP AR Degradation Dmax [1, 3] [%] |
| --- | --- | --- | --- | --- | --- | --- |
| 2 | 108 | 2 | 114 | Cc1cc(C(=O)NC2CCN(c3ccc(Cl)c4c(C#N)c[nH]c34)CC2)ccc1N1CCC(CN2CCC(n3ccc4c(N5CCC(=O)NC5=O)cccc43)CC2)CC1 [Example 164, N-[1-(4-Chloro-3-cyano-1H-indol-7-yl)piperidin-4-yl]-4-[4-({4-[4-(2,4-dioxo-1,3-diazinan-1-yl)-1H-indol-1-yl]piperidin-1-yl}methyl)piperidin-1-yl]-3-methylbenzamide] |  |  |
| 14 | 99 | 13 | 102 | N#Cc1c[nH]c2c(N3CCCC(c4ccc(N5CCC(CN6CCC(n7ccc8c(N9CCC(=O)NC9=O)cccc87)CC6)CC5)nc4)C3)ccc(Cl)c12 (single isomer, unassigned) [Example 115, 4-Chloro-7-[(3S*)-3-{6-[4-({4-[4-(2,4-dioxo-1,3-diazinan-1-yl)-1H-indol-1-yl]piperidin-1-yl}methyl)piperidin-1-yl]pyridin-3-yl}piperidin-1-yl]-1H-indole-3-carbonitrile] |  |  |
| 31 | 99 | 42 | 78 | N#Cc1c[nH]c2c(N3CCC[C@@H](c4ccc(N5CC6(CCC(CN7CCN(c8ccc9c(c8)CN(C8CCC(=O)NC8=O)C9=O)CC7)CC6)C5)cc4)C3)ccc(Cl)c12 (stereo partly drawn) [Example 130, 4-Chloro-7-[(3S)-3-{4-[7-({4-[2-(2,6-dioxopiperidin-3-yl)-1-oxo-2,3-dihydro-1H-isoindol-5-yl]piperazin-1-yl}methyl)-2-azaspiro[3.5]nonan-2-yl]phenyl}piperidin-1-yl]-1H-indole-3-carbonitrile] |  |  |
| 5 | 97 | 10 | 96 | N#Cc1c[nH]c2c(N3CCC(c4ccc(N5CCC(CN6CCN(c7ccc8c(c7)CN(C7CCC(=O)NC7=O)C8=O)CC6)CC5)nc4)CC3)ccc(Cl)c12 (stereo not drawn) [Example 109, 4-Chloro-7-(4-{6-[4-({4-[2-(2,6-dioxopiperidin-3-yl)-1-oxo-2,3-dihydro-1H-isoindol-5-yl]piperazin-1-yl}methyl)piperidin-1-yl]pyridin-3-yl}piperidin-1-yl)-1H-indole-3-carbonitrile] |  |  |
| 37 | 101 | 71 | 96 | N#Cc1c[nH]c2c(N3CCC(c4ccc(N5CCC(CN6CCN(c7cc8c(cc7F)C(=O)N(C7CCC(=O)NC7=O)C8=O)CC6)CC5)cc4)CC3)ccc(Cl)c12 (stereo not drawn) [Example 51, 4-Chloro-7-(4-{4-[4-({4-[2-(2,6-dioxopiperidin-3-yl)-6-fluoro-1,3-dioxo-2,3-dihydro-1H-isoindol-5-yl]piperazin-1-yl}methyl)piperidin-1-yl]phenyl}piperidin-1-yl)-1H-indole-3-carbonitrile] |  |  |

Second part, the compound before the results:

| Compound | DC50 [1] [nM] | Dmax [1, 3] [%] | DC50 [2] [nM] | Dmax [2] [%] | LNCaP AR (L702H) Degradation Dmax [2] [%] | LNCaP AR Degradation Dmax [1, 3] [%] |
| --- | --- | --- | --- | --- | --- | --- |
| N#Cc1c[nH]c2c(N3CCC(c4ccc(N5CCC(CN6CCC(n7ccc8c(N9CCC(=O)NC9=O)cccc87)CC6)CC5)cn4)CC3)ccc(Cl)c12 [Example 62, 4-Chloro-7-(4-{5-[4-({4-[4-(2,4-dioxo-1,3-diazinan-1-yl)-1H-indol-1-yl]piperidin-1-yl}methyl)piperidin-1-yl]pyridin-2-yl}piperidin-1-yl)-1H-indole-3-carbonitrile] | 7 | 99 | 80 | 71 |  |  |
| Cc1ccc(N2CCC(c3ccc(N4CCC(CN5CCC(n6ccc7c(N8CCC(=O)NC8=O)cccc76)CC5)CC4)cc3F)CC2)c2[nH]cc(C#N)c12 [Example 42, 7-(4-{4-[4-({4-[4-(2,4-Dioxo-1,3-diazinan-1-yl)-1H-indol-1-yl]piperidin-1-yl}methyl)piperidin-1-yl]-2-fluorophenyl}piperidin-1-yl)-4-methyl-1H-indole-3-carbonitrile] | 29 | 101 | 62 | 107 |  |  |
| N#Cc1c[nH]c2c(N3CCC(c4ccc(N5CC6(CCC(CN7CCN(c8ccc9c(c8)CN(C8CCC(=O)NC8=O)C9=O)CC7)CC6)C5)cc4)CC3)ccc(F)c12 (stereo not drawn) [Example 128, 7-(4-{4-[7-({4-[2-(2,6-Dioxopiperidin-3-yl)-1-oxo-2,3-dihydro-1H-isoindol-5-yl]piperazin-1-yl}methyl)-2-azaspiro[3.5]nonan-2-yl]phenyl}piperidin-1-yl)-4-fluoro-1H-indole-3-carbonitrile] | 26 | 102 | 61 | 103 |  |  |
| N#Cc1c[nH]c2c(N3CCC[C@@H](c4ccc(N5CCC(CN6CCN(c7cc8c(cc7F)C(=O)N(C7CCC(=O)NC7=O)C8=O)CC6)CC5)cc4)C3)ccc(Cl)c12 (stereo partly drawn) [Example 53, 4-Chloro-7-[(3S)-3-{4-[4-({4-[2-(2,6-dioxopiperidin-3-yl)-6-fluoro-1,3-dioxo-2,3-dihydro-1H-isoindol-5-yl]piperazin-1-yl}methyl)piperidin-1-yl]phenyl}piperidin-1-yl]-1H-indole-3-carbonitrile] | 30 | 99 | 78 | 103 |  |  |
| Cc1ccc(C2CCCN(c3cccc(OCCCCN4CCN(c5ccc6c(c5)CN(C5CCC(=O)NC5=O)C6=O)CC4)c3)C2)c2[nH]cc(C#N)c12 (single isomer, unassigned) [Example 81, 7-{(3S*)-1-[3-(4-{4-[2-(2,6-dioxopiperidin-3-yl)-1-oxo-2,3-dihydro-1H-isoindol-5-yl]piperazin-1-yl}butoxy)phenyl]piperidin-3-yl}-4-methyl-1H-indole-3-carbonitrile] | > 3000 |  | 3100 |  | 100 |  |
| Cn1c(C2CCN(CC3CCN(c4ccc([C@@H]5CCCN(c6ccc(Cl)c7c(C#N)n[nH]c67)C5)cc4)CC3)CC2)cc2ccc(N3CCC(=O)NC3=O)cc21 [Example 14, 4-Chloro-7-[(3S)-3-{4-[4-({4-[6-(2,4-dioxo-1,3-diazinan-1-yl)-1-methyl-1H-indol-2-yl]piperidin-1-yl}methyl)piperidin-1-yl]phenyl}piperidin-1-yl]-1H-indazole-3-carbonitrile] | 6 | 107 | 9 | 112 |  |  |
| COc1cc(N2CCN(CC3CCN(c4ccc(C5CCN(c6ccc(C)c7c(C#N)n[nH]c67)CC5)cc4)CC3)CC2)cc2c1C(=O)N(C1CCC(=O)NC1=O)C2 (stereo not drawn) [Example 149, 7-(4-{4-[4-({4-[2-(2,6-Dioxopiperidin-3-yl)-7-methoxy-1-oxo-2,3-dihydro-1H-isoindol-5-yl]piperazin-1-yl}methyl)piperidin-1-yl]phenyl}piperidin-1-yl)-4-methyl-1H-indazole-3-carbonitrile] | 20 | 96 | 60 | 91 |  |  |
| N#Cc1c[nH]c2c(N3CCC(c4ccc(N5CCC(CN6CCC(n7ccc8cc(N9CCC(=O)NC9=O)ccc87)CC6)CC5)cc4)CC3)ccc(Cl)c12 [Example 90, 4-Chloro-7-(4-{4-[4-({4-[5-(2,4-dioxo-1,3-diazinan-1-yl)-1H-indol-1-yl]piperidin-1-yl}methyl)piperidin-1-yl]phenyl}piperidin-1-yl)-1H-indole-3-carbonitrile] | 281 | 87 | 164 | 101 |  |  |
| Cn1c(C2CCN(CC3CCN(c4ccc(C(=O)NC5CCN(c6ccc(Cl)c7c(C#N)c[nH]c67)CC5)c(F)c4)CC3)CC2)cc2ccc(N3CCC(=O)NC3=O)cc21 [Example 158, N-[1-(4-Chloro-3-cyano-1H-indol-7-yl)piperidin-4-yl]-4-[4-({4-[6-(2,4-dioxo-1,3-diazinan-1-yl)-1-methyl-1H-indol-2-yl]piperidin-1-yl}methyl)piperidin-1-yl]-2-fluorobenzamide] | 1 | 104 | 7 | 107 |  |  |
| N#Cc1c[nH]c2c(N3CCC(c4cnc(N5CCC(CN6CCC(n7ccc8c(N9CCC(=O)NC9=O)cccc87)CC6)CC5)nc4)CC3)ccc(Cl)c12 [Example 125, 4-Chloro-7-(4-{2-[4-({4-[4-(2,4-dioxo-1,3-diazinan-1-yl)-1H-indol-1-yl]piperidin-1-yl}methyl)piperidin-1-yl]pyrimidin-5-yl}piperidin-1-yl)-1H-indole-3-carbonitrile] | 4 | 102 | 9 | 93 |  |  |
| Cc1ccc(C2CCCN(c3ccc(OCCCCN4CCN(c5ccc6c(c5)CN(C5CCC(=O)NC5=O)C6=O)CC4)cc3)C2)c2[nH]cc(C#N)c12 (single isomer, unassigned) [Example 79, 7-{(3S*)-1-[4-(4-{4-[2-(2,6-dioxopiperidin-3-yl)-1-oxo-2,3-dihydro-1H-isoindol-5-yl]piperazin-1-yl}butoxy)phenyl]piperidin-3-yl}-4-methyl-1H-indole-3-carbonitrile] | 9 |  | 21 |  | 79 | 92 |
